Results from ChEMBL document CHEMBL1123223, “New effective gonadotropin releasing hormone antagonists with minimal potency for histamine release in vitro” (J Med Chem, 1986).
In brackets after ≈: the same amount, converted by molar mass.

Assays:
Rattus norvegicus [1] = species on record: Rattus norvegicus; assay: Dissociation constant was determined in rat pituitary cells.; format: cell-based; conditions: pituitary gland cell
[2] = biological target: T1, Gonadotropin-releasing hormone receptor (Rattus norvegicus) (UniProt P30969); assay: Inhibition of GnRH-mediated LH secretion by cultured pituitary cells; format: functional, cell-based; conditions: Pituitary gland cell
T1 sequence (whole entry): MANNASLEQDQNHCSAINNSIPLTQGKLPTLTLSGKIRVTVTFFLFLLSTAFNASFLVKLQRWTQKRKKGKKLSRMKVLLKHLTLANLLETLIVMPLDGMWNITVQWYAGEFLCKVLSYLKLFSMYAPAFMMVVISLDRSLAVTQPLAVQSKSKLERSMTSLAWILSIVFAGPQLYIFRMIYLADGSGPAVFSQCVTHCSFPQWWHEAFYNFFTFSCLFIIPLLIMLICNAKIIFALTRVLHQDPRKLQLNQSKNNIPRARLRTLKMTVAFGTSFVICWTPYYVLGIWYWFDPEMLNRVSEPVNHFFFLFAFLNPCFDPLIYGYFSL

Rattus norvegicus [3] = species on record: Rattus norvegicus; assay: GnRH antagonistic dose of compound for 2 rats ovulation out of total 10 using anti-ovulatory assay in experiment 1; format: functional
Rattus norvegicus [4] = species on record: Rattus norvegicus; assay: Compound was tested in vitro for its ability to inhibit histamine release from rat mast cells.; format: functional; conditions: read-out: ED50 (the source's name)
Rattus norvegicus [5] = species on record: Rattus norvegicus; assay: GnRH antagonistic dose of compound for 0 rats ovulation out of total 6 using anti-ovulatory assay in experiment 2; format: functional

Work on `CC(=O)N[C@H](Cc1ccc2ccccc2c1)C(=O)N[C@H](Cc1ccc(Cl)cc1)C(=O)N[C@H](Cc1cccnc1)C(=O)N[C@@H](CO)C(=O)N[C@@H](CCCN=C(N)N)C(=O)N[C@H](Cc1c[nH]c2ccccc12)C(=O)N[C@@H](CC(C)C)C(=O)N[C@@H](CCCN=C(N)N)C(=O)N1CCC[C@H]1C(=O)N[C@H](C)C(=O)O` yielded a Kd (Rattus norvegicus [1]) of 0.96 nM, a Relative potency [2] of 0.44 and an ED100 (Rattus norvegicus [3]) of 0.5 µg/kg. The EC50 (Rattus norvegicus [4]) was 2.1 µg/mL (≈ 1.44 µM) and the ED100 (Rattus norvegicus [5]) was 1 µg/kg.
